Patent publication US20220387365A1, “TUCARESOL DERIVATIVES AND USES THEREOF” (BeyondSpring Pharmaceuticals, Inc., priority 2019, published 2022)
Values joined by “and” are separate entries in the source; they are usually repeats but may differ in a detail not shown here. Equal values may be shown once.

Columns and labels:
[1] = Body weight in MC38 model (Example 10); type: in vivo; conditions: for Mean Body Weight: in g (unit assumed)
Method: After tumor cell inoculation, the animals were checked daily for morbidity and mortality. During routine monitoring, the animals were checked for any effects of tumor growth and treatments on behavior such as mobility, food and water consumption, body weight gain/loss (Body weights were measured three times a week after randomization), eye/hair matting and any other abnormalities. Mortality and observed clinical signs were recorded for individual animals in detail.
Tumor volumes were measured three times a week after randomization in two dimensions using a caliper, and the volume was expressed in mm^3 using the formula: V=(L×W×W)/2, where V is tumor volume, L is tumor length (the longest tumor dimension) and W is tumor width (the longest tumor dimension perpendicular to L). Dosing as well as tumor and body weight measurements were conducted in a Laminar Flow Cabinet. The body weights and tumor volumes were measured by using StudyDirector™ software (version 3.1.399.19).
After one measurement of body weight loss (BWL)>20% or BWL>15% for consecutive 72 hours, the individual mouse was sacrificed. BWL was calculated based on the BW of mouse on the first day of treatment. After one measurement of BWL>15%, dosing holidays were given to the individual mouse with BWL>15% which was housed in a separate cage alone with daily monitoring for 72 hours, while other mice in the same group would receive dosing as scheduled., treatment was resumed when the BWL has recovered to BWL<10%. Supplemental gel was supplied to all the animals in the study on day 5 to day 15 upon sponsor's request.
The body weight of all animals was monitored throughout the study and animals were euthanized if they lost over 15% of their body weight relative to the weight at the first day of treatment for 3 consecutive days, or lose over 20% of their body weight relative to the weight at the first day of treatment.

[2] = Pharmacokinetics of tucaresol after a single dose in healthy subjects
[3] = plasma, single dose 400 mg, single subjects
[4] = plasma, single dose 800 mg, single subjects
[5] = plasma, single dose 1200 mg, single subjects
[6] = plasma, single dose 2000 mg, single subjects
[7] = plasma, single dose 2800 mg, single subjects
[8] = plasma, single dose 3600 mg, single subjects

With O=Cc1c(OCc2ccc(C(=O)O)cc2)cccc1OC1O[C@H](CO)[C@@H](O)[C@H](O)[C@H]1O (some centres unmarked) [Compound C02] the “weight loss (in words)” value ([1]; 20 mg/kg, PO, QDx5 (day 1-5), as a monotherapy or in combination with anti-PD1) was “not associated with weight loss”, the “Mean Body Weight” value ([1]; Day 1, Group 02: C02 20 mg/kg p.o. QD × 5 (day 1~5) + Rat IgG2a 10 mg/kg i.p. BIW) was 18.9 ± 0.2 and the “Mean Body Weight” value ([1]; Day 1, Group 04: C02 20 mg/kg p.o. QD × 5 (day 1~5) in combination with PD-1 (RMP 1-14) 10 mg/kg i.p. BIW × 6 doses) was 19.2 ± 0.2. For the same compound, the “Mean Body Weight” value ([1]; Day 4, Group 02: C02 20 mg/kg p.o. QD × 5 (day 1~5) + Rat IgG2a 10 mg/kg i.p. BIW) was 19.2 ± 0.2, the “Mean Body Weight” value ([1]; Day 4, Group 04: C02 20 mg/kg p.o. QD × 5 (day 1~5) in combination with PD-1 (RMP 1-14) 10 mg/kg i.p. BIW × 6 doses) was 19.3 ± 0.2 and the “Mean Body Weight” value ([1]; Day 8, Group 02: C02 20 mg/kg p.o. QD × 5 (day 1~5) + Rat IgG2a 10 mg/kg i.p. BIW) was 19.6 ± 0.2. The “Mean Body Weight” value ([1]; Day 8, Group 04: C02 20 mg/kg p.o. QD × 5 (day 1~5) in combination with PD-1 (RMP 1-14) 10 mg/kg i.p. BIW × 6 doses) was 19.9 ± 0.1, the “Mean Body Weight” value ([1]; Day 10, Group 02: C02 20 mg/kg p.o. QD × 5 (day 1~5) + Rat IgG2a 10 mg/kg i.p. BIW) was 20 ± 0.3 and the “Mean Body Weight” value ([1]; Day 10, Group 04: C02 20 mg/kg p.o. QD × 5 (day 1~5) in combination with PD-1 (RMP 1-14) 10 mg/kg i.p. BIW × 6 doses) was 20.3 ± 0.2. The “Mean Body Weight” value ([1]; Day 12, Group 02: C02 20 mg/kg p.o. QD × 5 (day 1~5) + Rat IgG2a 10 mg/kg i.p. BIW) was 20.6 ± 0.4, the “Mean Body Weight” value ([1]; Day 12, Group 04: C02 20 mg/kg p.o. QD × 5 (day 1~5) in combination with PD-1 (RMP 1-14) 10 mg/kg i.p. BIW × 6 doses) was 21 ± 0.2 and the “Mean Body Weight” value ([1]; Day 15, Group 02: C02 20 mg/kg p.o. QD × 5 (day 1~5) + Rat IgG2a 10 mg/kg i.p. BIW) was 22.3 ± 0.5. For the same compound, the “Mean Body Weight” value ([1]; Day 15, Group 04: C02 20 mg/kg p.o. QD × 5 (day 1~5) in combination with PD-1 (RMP 1-14) 10 mg/kg i.p. BIW × 6 doses) was 21.9 ± 0.4.
In the case of O=Cc1c(O)cccc1OCc1ccc(C(=O)O)cc1 [Tucaresol], the half-life ([2]; human, in vivo, 2000 mg) is reported as 9.25 days, the Tmax ([2]; human, in vivo, 2800 mg) is reported as 7.5 h and the half-life ([2]; human, in vivo, 2800 mg) is reported as 9.29 days. For the same compound, the Cmax ([2]; human, plasma, 200 mg, Cmax, single dose 200 mg, single subjects) was 9.9 µg/mL, the Tmax ([2]; human, plasma, 200 mg, tmax, single dose 200 mg, single subjects) was 5 h and the AUC ([2]; human, plasma, 400 mg, AUC, single dose 400 mg, single subjects) was 2830 µg·h/mL. For the same compound, the Cmax ([2]; human, plasma, 400 mg, Cmax, single dose 400 mg, single subjects) was 16.6 µg/mL, the half-life ([2]; human, plasma, 400 mg, t1/2,z, single dose 400 mg, single subjects) was 5.54 days and the Tmax ([2]; human, plasma, 400 mg, tmax, single dose 400 mg, single subjects) was 4.03 h. It also gave an AUC ([2]; human, plasma, 800 mg, AUC, single dose 800 mg, single subjects) of 4890 µg·h/mL, a Cmax ([2]; human, plasma, 800 mg, Cmax, single dose 800 mg, single subjects) of 28.3 µg/mL and a half-life ([2]; human, plasma, 800 mg, t1/2,z, single dose 800 mg, single subjects) of 5.58 days. For the same compound, the Tmax ([2]; human, plasma, 800 mg, tmax, single dose 800 mg, single subjects) was 4 h, the AUC ([2]; human, plasma, 1200 mg, AUC, Mean, single dose 1200 mg) was 8860 µg·h/mL and the Cmax ([2]; human, plasma, 1200 mg, Cmax, Mean, single dose 1200 mg) was 38.4 µg/mL. It also gave a Cmax ([2]; human, plasma, 1200 mg, Cmax, single dose 1200 mg, single subjects) of 40.4 µg/mL, a half-life ([2]; human, plasma, 1200 mg, t1/2,z, Mean, single dose 1200 mg) of 8.12 days and a Tmax ([2]; human, plasma, 1200 mg, tmax, Mean, single dose 1200 mg) of 6.5 h. For the same compound, the Tmax ([2]; human, plasma, 1200 mg, tmax, single dose 1200 mg, single subjects) was 8 h, the AUC ([2]; human, plasma, 2000 mg, AUC, Mean, single dose 2000 mg) was 14800 µg·h/mL and the AUC ([2]; human, plasma, 2000 mg, AUC, single dose 2000 mg, single subjects) was 16300 µg·h/mL. The Cmax ([2]; human, plasma, 2000 mg, Cmax, Mean, single dose 2000 mg) was 58.6 µg/mL, the Cmax ([2]; human, plasma, 2000 mg, Cmax, single dose 2000 mg, single subjects) was 60.8 µg/mL and the half-life ([2]; human, plasma, 2000 mg, t1/2,z, Mean, single dose 2000 mg) was 9.54 days. The half-life ([2]; human, plasma, 2000 mg, t1/2,z, single dose 2000 mg, single subjects) was 11.6 days, the Tmax ([2]; human, plasma, 2000 mg, tmax, Mean, single dose 2000 mg) was 5.5 h and the Tmax ([2]; human, plasma, 2000 mg, tmax, single dose 2000 mg, single subjects) was 6 h. It also gave an AUC ([2]; human, plasma, 2800 mg, AUC, Mean, single dose 2800 mg) of 16900 µg·h/mL, an AUC ([2]; human, plasma, 2800 mg, AUC, single dose 2800 mg, single subjects) of 12900 µg·h/mL and a Cmax ([2]; human, plasma, 2800 mg, Cmax, Mean, single dose 2800 mg) of 73.7 µg/mL. For the same compound, the Cmax ([2]; human, plasma, 2800 mg, Cmax, single dose 2800 mg, single subjects) was 56.6 µg/mL, the half-life ([2]; human, plasma, 2800 mg, t1/2,z, single dose 2800 mg, single subjects) was 9.67 days and the Tmax ([2]; human, plasma, 2800 mg, tmax, single dose 2800 mg, single subjects) was 6 h. It also gave an AUC ([2]; human, plasma, 3600 mg, AUC, Mean, single dose 3600 mg) of 26600 µg·h/mL, an AUC ([2]; human, plasma, 3600 mg, AUC, single dose 3600 mg, single subjects) of 25400 µg·h/mL and a Cmax ([2]; human, plasma, 3600 mg, Cmax, Mean, single dose 3600 mg) of 95.8 µg/mL. It also gave a Cmax ([2]; human, plasma, 3600 mg, Cmax, single dose 3600 mg, single subjects) of 81.7 µg/mL, a half-life ([2]; human, plasma, 3600 mg, t1/2,z, Mean, single dose 3600 mg) of 12 days and a half-life ([2]; human, plasma, 3600 mg, t1/2,z, single dose 3600 mg, single subjects) of 12.1 days. It also gave a Tmax ([2]; human, plasma, 3600 mg, tmax, Mean, single dose 3600 mg) of 10 h, a Tmax ([2]; human, plasma, 3600 mg, tmax, single dose 3600 mg, single subjects) of 6.08 h and a Cmax ([2]; plasma, single dose 200 mg, single subjects) of 11.1 µg/mL. For the same compound, the AUC [2, 3] was 3562 µg·h/mL, the CL0 [2, 3] was 2.35 mL/min and 1.86 mL/min and the Cmax [2, 3] was 19.6 µg/mL. The Tmax [2, 3] was 3.00 h, the “t1/2,z” value [2, 3] was 190 h and the AUC [2, 4] was 5759 µg·h/mL. For the same compound, the CL0 [2, 4] was 2.72 mL/min and 2.31 mL/min, the Cmax [2, 4] was 36.5 µg/mL and the Tmax [2, 4] was 4.08 h. The “t1/2,z” value [2, 4] was 126 h, the “CL0, Mean” value ([2]; plasma, single dose 1200 mg) was 2.40 mL/min and the AUC [2, 5] was 12103 µg·h/mL and 9180 µg·h/mL and 5987 µg·h/mL and 8161 µg·h/mL. The CL0 [2, 5] was 1.65 mL/min and 2.17 mL/min and 3.33 mL/min and 2.44 mL/min, the Cmax [2, 5] was 40.1 µg/mL and 39.3 µg/mL and 33.7 µg/mL and the “t1/2,z” value [2, 5] was 252 h and 192 h and 123 h and 215 h. For the same compound, the “CL0, Mean” value ([2]; plasma, single dose 2000 mg) was 2.27 mL/min, the AUC [2, 6] was 16487 µg·h/mL and 14010 µg·h/mL and 12455 µg·h/mL and the CL0 [2, 6] was 2.04 mL/min and 2.01 mL/min and 2.37 mL/min and 2.67 mL/min. The Cmax [2, 6] was 59.3 µg/mL and 57.1 µg/mL, the “t1/2,z” value [2, 6] was 207 h and 209 h and the “CL0, Mean” value ([2]; plasma, single dose 2800 mg) was 2.85 mL/min. The AUC [2, 7] was 20871 µg·h/mL and 15635 µg·h/mL and 18018 µg·h/mL, the CL0 [2, 7] was 3.61 mL/min and 2.23 mL/min and 2.97 mL/min and 2.58 mL/min and the Cmax [2, 7] was 87.7 µg/mL and 91.4 µg/mL and 59.3 µg/mL. For the same compound, the Tmax [2, 7] was 12.00 h, the “t1/2,z” value [2, 7] was 240 h and 178 h and 241 h and the “CL0, Mean” value ([2]; plasma, single dose 3600 mg) was 2.26 mL/min. The AUC [2, 8] was 27818 µg·h/mL and 24131 µg·h/mL and 29116 µg·h/mL, the CL0 [2, 8] was 2.36 mL/min and 2.15 mL/min and 2.48 mL/min and 2.05 mL/min and the Cmax [2, 8] was 86.3 µg/mL and 80.3 µg/mL and 134.7 µg/mL. For the same compound, the “t1/2,z” value [2, 8] was 329 h and 265 h and 268 h.
